We go through ten molecules from patent US6596772B1, “Phosphate mimics and methods of treatment using phosphatase inhibitors” (Sugen, Inc., priority 1999, dated 2003).

Common to all, as to assay: PTP IC50 assay, fluorescent substrate DiFMUP
Holding throughout (assay type): biochemical

Assay [1] addresses T1, PTP SHP2 (Homo sapiens, UniProt Q06124).
T1 construct: The catalytic domain was amplified using the following oligonucleotides; made in house; host or cells: Sf-9 insect cells (pFastBac-G2T)
T1 sequence (Q06124 247-517 limits assumed): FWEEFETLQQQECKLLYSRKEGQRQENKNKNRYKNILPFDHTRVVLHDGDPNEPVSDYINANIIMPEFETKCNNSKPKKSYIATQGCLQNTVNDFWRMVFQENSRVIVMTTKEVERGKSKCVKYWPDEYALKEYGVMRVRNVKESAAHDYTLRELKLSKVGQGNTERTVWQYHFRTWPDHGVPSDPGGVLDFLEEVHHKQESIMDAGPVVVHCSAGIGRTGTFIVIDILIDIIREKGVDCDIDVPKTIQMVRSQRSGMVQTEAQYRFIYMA
The settings on record: DiFMUP as substrate, 25° C.; read-out: PTP IC50 SHP2.

In assay [2] the target is T2, PTP 1B (Homo sapiens, UniProt P18031).
T2 construct: made in house; host or cells: Sf-9 insect cells (pFastBac-G2T)
T2 sequence (P18031 1-435): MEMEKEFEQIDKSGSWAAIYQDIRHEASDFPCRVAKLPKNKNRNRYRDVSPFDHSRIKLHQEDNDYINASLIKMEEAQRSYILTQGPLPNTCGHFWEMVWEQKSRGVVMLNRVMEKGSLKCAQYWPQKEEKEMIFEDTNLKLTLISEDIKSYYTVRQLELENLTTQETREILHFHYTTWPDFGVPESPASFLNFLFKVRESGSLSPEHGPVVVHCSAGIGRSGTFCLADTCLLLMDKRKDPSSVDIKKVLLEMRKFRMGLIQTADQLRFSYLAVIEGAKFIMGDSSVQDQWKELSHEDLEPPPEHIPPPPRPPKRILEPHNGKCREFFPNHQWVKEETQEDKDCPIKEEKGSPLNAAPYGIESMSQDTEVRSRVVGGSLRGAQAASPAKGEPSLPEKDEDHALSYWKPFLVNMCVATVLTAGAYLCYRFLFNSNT
The following applies: DiFMUP as substrate, 25° C.; read-out: PTP IC50 1B.

The target in assay [3] is T3, PTP EPSILON (Homo sapiens, UniProt P23469).
T3 construct: made in house; host or cells: Sf-9 insect cells (pFastBac-G2T); a pGEX 6P-1 construct also existed
The following applies: DiFMUP as substrate, 25° C.; read-out: PTP IC50 Epilson.

In general, IC50 refers to the concentration that gives 50% inhibition.

T3 sequence (P23469 80-393 limits assumed): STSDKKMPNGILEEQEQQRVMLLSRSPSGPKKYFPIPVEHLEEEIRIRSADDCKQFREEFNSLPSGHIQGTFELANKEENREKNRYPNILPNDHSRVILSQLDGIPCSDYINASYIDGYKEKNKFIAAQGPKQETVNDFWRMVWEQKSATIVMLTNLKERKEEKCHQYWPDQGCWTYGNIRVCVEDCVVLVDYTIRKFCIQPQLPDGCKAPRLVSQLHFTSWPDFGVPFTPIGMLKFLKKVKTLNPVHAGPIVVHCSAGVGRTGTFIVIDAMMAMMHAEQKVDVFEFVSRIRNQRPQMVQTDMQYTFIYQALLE

For the molecule `CCOC(=O)c1cc2cc(NS(=O)(=O)C(F)(F)F)ccc2n1CC(=O)OC(C)(C)C` [Example 94, 1-tert-Butoxycarbonylmethyl-5-trifluoromethanesulfonylamino-1H-indole-2-carboxylic acid ethyl ester], the half-inhibitory concentration (IC50) in assay [1] was found to be 1.5 µM; in assay [2], 12 µM; in assay [3], 4.2 µM.

Take `CCOC(=O)c1cc2cc(NS(=O)(=O)C(F)(F)F)ccc2n1CC(=O)O` [Example 95, 1-Carboxymethyl-5-trifluoromethanesulfonylamino-1H-indole-2-carboxylic acid ethyl ester]: the IC50 was > 20 µM in assay [1], > 100 µM in assay [2] and > 100 µM in assay [3].

Turning to `CC(C)(C)OC(=O)Cn1c(C(=O)O)cc2cc(NS(=O)(=O)C(F)(F)F)ccc21` [Example 96, 1-tert-Butoxycarbonylmethyl-5-trifluoromethanesulfonylamino-1H-indole-2-carboxylic acid], the IC50 in assay [1] was found to be 9.1 µM; in assay [2], 34.7 µM; in assay [3], 31.2 µM.

In the case of `O=C(O)Cn1c(C(=O)O)cc2cc(NS(=O)(=O)C(F)(F)F)ccc21` [Example 97, 1-Carboxymethyl-5-trifluoromethanesulfonylamino-1H-indole-2-carboxylic acid], the values for the IC50 in assay [1], in assay [2] and in assay [3] were 6.1 µM, 44.2 µM and 62.9 µM, respectively.

Turning to `CCOC(=O)c1cc2cc(N(S(=O)(=O)C(F)(F)F)S(=O)(=O)C(F)(F)F)ccc2n1CC(=O)O` [Example 98, 1-Carboxymethyl-5-(N,N-ditrifluoromethanesulfonyl)amino-1H-indole-2-carboxylic acid ethyl ester], the results for the IC50 in assay [1], in assay [2] and in assay [3] were > 20 µM, > 100 µM and 41.6 µM, respectively.

Turning to `CCOC(=O)c1cc2cc(N(S(=O)(=O)C(F)(F)F)S(=O)(=O)C(F)(F)F)ccc2n1CC(=O)OC(C)(C)C` [Example 99, 1-tert-Butoxycarbonylmethyl-5-(N,N-ditrifluoromethanesulfonyl)amino-1H-indole-2-carboxylic acid ethyl ester], the IC50 in assay [1] amounted to 7 µM; in assay [2], 4.8 µM; in assay [3], 27.5 µM.

Regarding `O=C(O)Cn1c(C(=O)O)cc2cc(N(S(=O)(=O)C(F)(F)F)S(=O)(=O)C(F)(F)F)ccc21` [Example 100, 1-Carboxymethyl-5-(N,N-ditrifluoromethanesulfonyl)amino-1H-indole-2-carboxylic acid], the figures for the IC50 in assay [1], in assay [2] and in assay [3] were > 20 µM, > 100 µM and > 100 µM, respectively.

On to `CCOC(=O)c1cc2cc(NS(=O)(=O)C(F)(F)F)ccc2n1CC1CCCCC1` [Example 101, 1-Cyclohexylmethyl-5-trifluoromethanesulfonylamino-1H-indole-2-carboxylic acid ethyl ester], for which the values for the IC50 in assay [1], in assay [2] and in assay [3] were 3.4 µM, 6.6 µM and 1.4 µM, respectively.

Take `O=C(O)c1cc2cc(NS(=O)(=O)C(F)(F)F)ccc2n1Cc1ccccc1` [Example 102, 1-Benzyl-5-trifluoromethanesulfonylamino-1H-indole-2-carboxylic acid]: the IC50 in assay [1] turned out to be 4 µM; in assay [2], 43.1 µM; in assay [3], 12.2 µM.

For the molecule `O=C(O)c1cc2cc(NS(=O)(=O)C(F)(F)F)ccc2n1CC1CCCCC1` [Example 103, 1-Cyclohexylmethyl-5-trifluoromethanesulfonylamino-1H-indole-2-carboxylic acid], the IC50 is 17.9 µM in assay [1], > 100 µM in assay [2] and 34.7 µM in assay [3].
